Where a name gives a salt, the structure may show the parent alone.
Columns and labels:
[1] = biological target: T1, human neutrophil elastase (Homo sapiens, UniProt P08246); experiment: Neutrophil Elastase activity assay (fluorogenic MEOSUC-Ala-Ala-Pro-Val-AMC substrate); type: biochemical; set-up: key to Neutrophil Elastase IC50 / Neutrophil Elastase IC90: - = inactive
T1 construct: purchased Merck Millipore 324681
T1 sequence (P08246 30-247 limits assumed): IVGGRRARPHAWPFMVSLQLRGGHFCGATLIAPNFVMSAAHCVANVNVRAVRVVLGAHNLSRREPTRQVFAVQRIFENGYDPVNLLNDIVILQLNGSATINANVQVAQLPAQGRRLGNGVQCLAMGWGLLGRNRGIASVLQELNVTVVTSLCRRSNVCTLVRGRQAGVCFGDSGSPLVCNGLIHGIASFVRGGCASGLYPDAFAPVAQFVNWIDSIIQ

[2] = biological target: recombinant human TMPRSS2 enzyme (CusaBio #YP023924HU) (human) (UniProt O15393); experiment: cell-based or functional assay
[3] = 15 min preincubation at 37 °C, read after 5 minutes

recombinant human TMPRSS2 enzyme (CusaBio #YP023924HU) (human), sequence (O15393 106-492 limits assumed): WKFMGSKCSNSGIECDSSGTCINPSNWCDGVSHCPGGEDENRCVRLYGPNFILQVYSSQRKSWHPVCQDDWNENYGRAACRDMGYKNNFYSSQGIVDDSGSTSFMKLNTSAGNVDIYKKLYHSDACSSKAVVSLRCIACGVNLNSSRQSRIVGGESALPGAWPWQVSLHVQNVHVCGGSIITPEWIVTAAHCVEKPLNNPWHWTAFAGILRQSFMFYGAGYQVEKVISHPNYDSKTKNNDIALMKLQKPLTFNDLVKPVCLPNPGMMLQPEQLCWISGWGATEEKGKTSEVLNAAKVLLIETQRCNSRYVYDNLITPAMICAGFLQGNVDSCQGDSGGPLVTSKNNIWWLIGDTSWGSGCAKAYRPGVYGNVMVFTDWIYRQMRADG

TMPRSS2 IC50 (fluorogenic substrate enzyme activity assay) [2] | Compound | Neutrophil Elastase IC50 [1, 3] | Neutrophil Elastase IC90 [1, 3] | inhibition of neutrophil elastase activity ([1]; result in words)
 | CN(C)C(=O)COC(=O)Cc1ccc(OC(=O)c2ccc(NC(=N)N)cc2)cc1 [Camostat mesylate] | - | - | did not inhibit
51.8 nM | NIBSC Standard Alpha-1-Antitrypsin, plasma derived (1st International standard) (#05/162 NIBSC) (from UniProt P01009 25-418) |  |  | 
79 nM | Prolastin (Grifols), human plasma-derived A1AT formulation (from UniProt P01009 25-418) |  |  | 

Source: patent publication EP4480960A1, “A R[…] ALPHA-1 ANTITRYPSIN GLYCOPROTEIN” (AATEC Medical GmbH, priority 2023, dated 2024)
